Data on 10 molecules can be found in ChEMBL document CHEMBL1201862, “PubChem BioAssay data set” (2004).

The source made the active and inactive calls.

One experiment deals with Wee1-like protein kinase (Homo sapiens, UniProt P30291). In words: Navigating the Kinome. Panel member name: WEE1. Type of experiment: functional.
The target in experiment [1] is ALK tyrosine kinase receptor (Homo sapiens, UniProt Q9UM73). In kind it is functional.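 Also: ALK tested as one member of a kinase panel screen.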
The target in a further experiment is LIM domain kinase 1 (Homo sapiens, UniProt P53667). In words: Navigating the Kinome. Panel member name: LIMK1. In kind it is functional.
The target in experiment [2] is Serine/threonine-protein kinase Chk1 (Homo sapiens, UniProt O14757). Type of experiment: functional.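 Also: measured as one member of a kinome-wide kinase profiling panel.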
Experiment [3] deals with Macrophage colony-stimulating factor 1 receptor (Homo sapiens, UniProt P07333). Type of experiment: functional.
Experiment [4] is described as follows: Vero cell cytotoxicity, dose response, cytotoxicity control for M. tuberculosis growth inhibitor project, Vero cells, purified and synthesized compounds, set 4 (AID 504854). Type of experiment: functional. The following applies: Mycobacterium tuberculosis.
Experiment [5] deals with FAD-linked sulfhydryl oxidase ALR (Homo sapiens, UniProt P55789). In words: ALR-catalysed DTT oxidation blockers – biochemical, H2O2 detection, luminescence, cherry-pick, dose response (AID 493248).
For experiment [6], the target named is T1, High affinity choline transporter 1 (Homo sapiens, UniProt Q9GZV3).
T1 sequence (Q9GZV3 whole entry): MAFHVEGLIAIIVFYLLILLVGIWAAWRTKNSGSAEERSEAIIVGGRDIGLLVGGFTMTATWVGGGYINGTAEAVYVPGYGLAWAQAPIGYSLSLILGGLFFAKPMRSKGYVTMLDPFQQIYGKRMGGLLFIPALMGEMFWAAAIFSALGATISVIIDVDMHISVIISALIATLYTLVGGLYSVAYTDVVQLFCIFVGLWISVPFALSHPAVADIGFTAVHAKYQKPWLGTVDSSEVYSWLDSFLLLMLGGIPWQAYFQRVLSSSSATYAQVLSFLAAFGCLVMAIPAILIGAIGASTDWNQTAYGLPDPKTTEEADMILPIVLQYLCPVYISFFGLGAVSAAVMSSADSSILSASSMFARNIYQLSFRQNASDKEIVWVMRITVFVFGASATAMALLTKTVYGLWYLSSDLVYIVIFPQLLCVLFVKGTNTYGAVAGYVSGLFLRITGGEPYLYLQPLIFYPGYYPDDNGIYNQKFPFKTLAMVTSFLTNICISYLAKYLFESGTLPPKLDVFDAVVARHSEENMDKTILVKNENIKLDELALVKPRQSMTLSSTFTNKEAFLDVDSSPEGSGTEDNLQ
Put plainly: human choline transporter blockers, potency – cell-based, 5-point CRC, membrane potential dye, dose response (AID 504840). Type of experiment: functional.

Experiment [7] has as its target T1, High affinity choline transporter 1. In words: human choline transporter blockers, potency – cell-based, 10-point CRC, membrane potential dye, dose response (AID 588401).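 Also: membrane potential dye fluorescence of choline-evoked depolarization via CHT.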 Type of experiment: functional.
Experiment [8] deals with Mitogen-activated protein kinase kinase kinase kinase 5 (Homo sapiens, UniProt Q9Y4K4). In kind it is functional.
Experiment [9] addresses Casein kinase II subunit alpha (Homo sapiens, UniProt P68400). In kind it is functional.
Another experiment has as its target Aurora kinase B (Homo sapiens, UniProt Q96GD4). In kind it is functional.
In experiment [10] the target is Serine/threonine-protein kinase pim-1 (Homo sapiens, UniProt P11309). Type of experiment: functional.
Experiment [11] concerns the target DNA dC->dU-editing enzyme APOBEC-3G (Homo sapiens, UniProt Q9HC16). Put plainly: inhibition of APOBEC3G ssDNA deamination – biochemical, fluorescence, single-stranded DNA substrate, SAR follow-up (AID 602136). To be noted: read-out: IC50_Mean. In kind it is functional.
Experiment [12] concerns the target DNA dC->dU-editing enzyme APOBEC-3A (Homo sapiens, UniProt P31941). Put plainly: SAR analysis of small molecule inhibitors of APOBEC3A DNA Deaminase via a fluorescence-based single-stranded DNA deaminase assay. To be noted: read-out: IC50_Mean. In kind it is functional.
For experiment [13], the target named is Sphingosine 1-phosphate receptor 3 (Homo sapiens, UniProt Q99500). Put plainly: Late-stage fluorescence-based dose-response cell-based counterscreen assay to identify agonists of the Sphingosine 1-Phosphate Receptor 4 (S1P4): Sphingosine 1-Phosphate Receptor 3 (S1P3) agonist assay Set 2. In kind it is functional.
Experiment [14] has as its target Sphingosine 1-phosphate receptor 1 (Homo sapiens, UniProt P21453). Put plainly: Late-stage fluorescence-based dose-response cell-based counterscreen assay to identify agonists of the Sphingosine 1-Phosphate Receptor 4 (S1P4): Sphingosine 1-Phosphate Receptor 1 (S1P1) agonist assay Set 2. Type of experiment: functional. For orientation: The purpose of a counterscreen is to sort out artefacts and off-target activity.

Experiment [15] concerns the target Sphingosine 1-phosphate receptor 2 (Homo sapiens, UniProt O95136). Put plainly: activation of human S1P2 receptor – cell-based, fluorescence, set 2, counter-screen for S1P4 agonist project, late-stage follow-up (AID 504873). Type of experiment: functional.
Experiment [16] deals with Sphingosine 1-phosphate receptor 5 (Homo sapiens, UniProt Q9H228). In words: activation of human S1P5 receptor – cell-based, fluorescence, set 2, counter-screen for S1P4 agonist project, late-stage follow-up (AID 504867). In kind it is functional.
The target of experiment [17] is Melanin-concentrating hormone receptor 1 (Homo sapiens, UniProt Q99705). Put plainly: Late-stage fluorescence-based counterscreen for antagonists of the G-protein coupled receptor 7 (GPR7): cell-based dose response assay to identify antagonists of the melanin-concentrating hormone receptor 1 (MCHR1) Set 5. Type of experiment: functional.
Experiment [18] addresses Neuropeptides B/W receptor type 1 (Homo sapiens, UniProt P48145). Put plainly: human NPBW1 receptor blockade, IC50 – cell-based, fluorescence, dose response, set 5, late-stage follow-up (AID 588566). In kind it is functional.
Experiment [19] deals with Cyclin-dependent kinase 19 (Homo sapiens, UniProt Q9BWU1). In words: Navigating the Kinome. Panel member name: CDC2L6. In kind it is functional.
Experiment [20] deals with Leukocyte tyrosine kinase receptor (Homo sapiens, UniProt P29376). Put plainly: Navigating the Kinome. Panel member name: LTK. Type of experiment: functional.
Experiment [21] concerns the target Hepatocyte growth factor receptor (Homo sapiens, UniProt P08581). In kind it is functional.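 Also: kinase panel profiling across the kinome, with MET as the panel member.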
Experiment [22] has as its target High affinity nerve growth factor receptor (Homo sapiens, UniProt P04629). In kind it is functional.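 Also: NTRK1 tested as one member of a kinome-wide profiling panel.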
The target of experiment [23] is MAP kinase-activated protein kinase 3 (Homo sapiens, UniProt Q16644). In kind it is functional.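 Also: value comes from a kinome-wide profiling panel in which MAPKAPK3 is one of the panel members.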
Experiment [24] has as its target Lymphokine-activated killer T-cell-originated protein kinase (Homo sapiens, UniProt Q96KB5). Type of experiment: functional.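 Also: value comes from a kinase panel screen in which TOPK was one of the panel members.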

Sequence of Serine/threonine-protein kinase pim-1 (P11309 whole entry): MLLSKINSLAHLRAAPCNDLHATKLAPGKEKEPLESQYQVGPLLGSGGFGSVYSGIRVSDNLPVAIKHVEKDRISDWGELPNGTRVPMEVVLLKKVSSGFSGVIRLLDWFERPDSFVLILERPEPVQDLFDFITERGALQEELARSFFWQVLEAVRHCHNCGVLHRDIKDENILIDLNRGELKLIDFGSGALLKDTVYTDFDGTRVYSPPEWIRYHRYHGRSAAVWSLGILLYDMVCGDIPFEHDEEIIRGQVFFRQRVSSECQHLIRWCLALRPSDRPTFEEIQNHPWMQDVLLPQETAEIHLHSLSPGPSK
Sequence of Sphingosine 1-phosphate receptor 2 (O95136 whole entry): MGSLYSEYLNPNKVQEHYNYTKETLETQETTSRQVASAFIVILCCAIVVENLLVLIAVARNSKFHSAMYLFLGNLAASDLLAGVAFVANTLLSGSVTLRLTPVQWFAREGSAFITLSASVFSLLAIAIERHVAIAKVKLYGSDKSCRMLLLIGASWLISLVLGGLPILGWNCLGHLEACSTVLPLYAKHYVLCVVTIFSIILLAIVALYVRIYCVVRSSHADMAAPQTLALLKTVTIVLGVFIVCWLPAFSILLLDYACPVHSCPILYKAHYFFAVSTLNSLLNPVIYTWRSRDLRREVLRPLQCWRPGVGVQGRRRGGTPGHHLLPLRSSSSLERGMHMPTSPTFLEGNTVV
Sequence of Leukocyte tyrosine kinase receptor (P29376 whole entry): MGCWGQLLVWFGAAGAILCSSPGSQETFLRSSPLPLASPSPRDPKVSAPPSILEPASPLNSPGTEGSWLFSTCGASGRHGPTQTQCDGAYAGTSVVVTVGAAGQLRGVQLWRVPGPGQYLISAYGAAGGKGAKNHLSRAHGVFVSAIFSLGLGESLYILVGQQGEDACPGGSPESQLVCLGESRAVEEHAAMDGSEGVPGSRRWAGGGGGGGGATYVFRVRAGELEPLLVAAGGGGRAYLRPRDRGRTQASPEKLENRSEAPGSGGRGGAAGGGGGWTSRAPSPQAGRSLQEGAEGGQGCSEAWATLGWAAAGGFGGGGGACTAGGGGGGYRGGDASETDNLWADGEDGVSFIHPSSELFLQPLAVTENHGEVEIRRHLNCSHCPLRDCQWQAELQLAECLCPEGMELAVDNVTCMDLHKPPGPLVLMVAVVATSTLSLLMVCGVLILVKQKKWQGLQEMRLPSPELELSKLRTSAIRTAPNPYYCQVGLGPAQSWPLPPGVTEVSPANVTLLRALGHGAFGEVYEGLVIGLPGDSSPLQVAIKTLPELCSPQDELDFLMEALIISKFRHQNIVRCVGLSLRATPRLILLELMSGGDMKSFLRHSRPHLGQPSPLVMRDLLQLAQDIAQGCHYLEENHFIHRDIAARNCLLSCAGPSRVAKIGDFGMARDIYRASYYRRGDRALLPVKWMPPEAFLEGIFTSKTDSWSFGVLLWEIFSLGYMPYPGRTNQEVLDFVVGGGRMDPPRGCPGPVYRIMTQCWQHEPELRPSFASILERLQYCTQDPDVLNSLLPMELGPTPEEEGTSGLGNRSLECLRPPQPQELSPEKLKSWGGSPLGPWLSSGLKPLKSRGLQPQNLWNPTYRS
Sequence of Lymphokine-activated killer T-cell-originated protein kinase (Q96KB5 whole entry): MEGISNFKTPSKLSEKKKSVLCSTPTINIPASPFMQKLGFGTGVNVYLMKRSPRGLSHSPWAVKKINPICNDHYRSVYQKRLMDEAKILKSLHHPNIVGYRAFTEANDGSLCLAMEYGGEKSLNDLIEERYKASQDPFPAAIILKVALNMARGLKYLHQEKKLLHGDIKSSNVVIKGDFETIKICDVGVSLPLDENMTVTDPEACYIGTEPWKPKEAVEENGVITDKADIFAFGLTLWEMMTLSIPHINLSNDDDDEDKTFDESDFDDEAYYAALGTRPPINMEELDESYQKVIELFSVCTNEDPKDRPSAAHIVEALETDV
Sequence of FAD-linked sulfhydryl oxidase ALR (P55789 whole entry): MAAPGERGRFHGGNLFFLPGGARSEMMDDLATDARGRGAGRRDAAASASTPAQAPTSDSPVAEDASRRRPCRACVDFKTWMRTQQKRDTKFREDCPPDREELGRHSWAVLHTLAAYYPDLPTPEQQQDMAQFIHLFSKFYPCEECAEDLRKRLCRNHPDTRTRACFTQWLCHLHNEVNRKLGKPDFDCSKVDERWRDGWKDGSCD
Sequence of Aurora kinase B (Q96GD4 whole entry): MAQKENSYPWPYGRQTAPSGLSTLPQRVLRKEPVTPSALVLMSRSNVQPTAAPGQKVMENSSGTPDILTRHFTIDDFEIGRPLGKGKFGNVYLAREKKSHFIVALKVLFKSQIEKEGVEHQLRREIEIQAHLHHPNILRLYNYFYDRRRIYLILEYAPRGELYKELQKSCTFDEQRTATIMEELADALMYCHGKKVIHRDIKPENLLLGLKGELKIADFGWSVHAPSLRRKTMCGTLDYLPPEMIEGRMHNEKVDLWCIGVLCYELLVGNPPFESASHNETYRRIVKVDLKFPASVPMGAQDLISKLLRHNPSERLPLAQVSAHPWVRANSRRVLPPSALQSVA
Sequence of Macrophage colony-stimulating factor 1 receptor (P07333 whole entry): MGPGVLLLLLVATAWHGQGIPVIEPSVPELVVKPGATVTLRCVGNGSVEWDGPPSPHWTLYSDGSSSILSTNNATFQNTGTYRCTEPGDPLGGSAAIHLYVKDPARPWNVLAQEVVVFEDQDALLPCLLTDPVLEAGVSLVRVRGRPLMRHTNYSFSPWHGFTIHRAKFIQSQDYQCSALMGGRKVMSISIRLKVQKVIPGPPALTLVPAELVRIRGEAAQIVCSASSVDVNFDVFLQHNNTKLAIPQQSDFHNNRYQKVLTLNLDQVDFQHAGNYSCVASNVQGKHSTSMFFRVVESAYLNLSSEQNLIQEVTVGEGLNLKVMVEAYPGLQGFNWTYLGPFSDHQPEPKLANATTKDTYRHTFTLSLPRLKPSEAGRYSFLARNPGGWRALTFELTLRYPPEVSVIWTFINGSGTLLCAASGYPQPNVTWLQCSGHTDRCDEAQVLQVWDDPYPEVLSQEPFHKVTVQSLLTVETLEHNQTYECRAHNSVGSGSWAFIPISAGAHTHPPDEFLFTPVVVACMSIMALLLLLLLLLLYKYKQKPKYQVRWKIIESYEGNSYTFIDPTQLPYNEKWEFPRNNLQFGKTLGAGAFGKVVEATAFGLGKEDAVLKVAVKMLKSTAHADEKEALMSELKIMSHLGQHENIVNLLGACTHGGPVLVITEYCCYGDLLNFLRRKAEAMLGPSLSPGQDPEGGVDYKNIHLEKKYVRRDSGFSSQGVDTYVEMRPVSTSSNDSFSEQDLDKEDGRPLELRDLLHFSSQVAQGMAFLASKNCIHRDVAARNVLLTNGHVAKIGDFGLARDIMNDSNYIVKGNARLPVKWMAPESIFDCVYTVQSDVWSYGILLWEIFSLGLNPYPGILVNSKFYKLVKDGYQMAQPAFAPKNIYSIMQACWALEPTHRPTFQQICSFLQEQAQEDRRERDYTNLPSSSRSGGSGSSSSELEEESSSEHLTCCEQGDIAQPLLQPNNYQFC
Sequence of Melanin-concentrating hormone receptor 1 (Q99705 whole entry): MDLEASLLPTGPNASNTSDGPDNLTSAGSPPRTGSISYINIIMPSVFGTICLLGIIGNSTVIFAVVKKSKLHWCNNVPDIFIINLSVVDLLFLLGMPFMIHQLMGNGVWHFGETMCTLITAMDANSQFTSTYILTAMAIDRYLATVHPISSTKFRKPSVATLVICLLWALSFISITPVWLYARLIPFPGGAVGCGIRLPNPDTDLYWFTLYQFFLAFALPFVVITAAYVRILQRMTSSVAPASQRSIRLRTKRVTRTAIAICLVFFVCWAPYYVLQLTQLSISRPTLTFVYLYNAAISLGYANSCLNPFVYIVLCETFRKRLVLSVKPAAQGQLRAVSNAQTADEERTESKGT
Sequence of Mitogen-activated protein kinase kinase kinase kinase 5 (Q9Y4K4 whole entry): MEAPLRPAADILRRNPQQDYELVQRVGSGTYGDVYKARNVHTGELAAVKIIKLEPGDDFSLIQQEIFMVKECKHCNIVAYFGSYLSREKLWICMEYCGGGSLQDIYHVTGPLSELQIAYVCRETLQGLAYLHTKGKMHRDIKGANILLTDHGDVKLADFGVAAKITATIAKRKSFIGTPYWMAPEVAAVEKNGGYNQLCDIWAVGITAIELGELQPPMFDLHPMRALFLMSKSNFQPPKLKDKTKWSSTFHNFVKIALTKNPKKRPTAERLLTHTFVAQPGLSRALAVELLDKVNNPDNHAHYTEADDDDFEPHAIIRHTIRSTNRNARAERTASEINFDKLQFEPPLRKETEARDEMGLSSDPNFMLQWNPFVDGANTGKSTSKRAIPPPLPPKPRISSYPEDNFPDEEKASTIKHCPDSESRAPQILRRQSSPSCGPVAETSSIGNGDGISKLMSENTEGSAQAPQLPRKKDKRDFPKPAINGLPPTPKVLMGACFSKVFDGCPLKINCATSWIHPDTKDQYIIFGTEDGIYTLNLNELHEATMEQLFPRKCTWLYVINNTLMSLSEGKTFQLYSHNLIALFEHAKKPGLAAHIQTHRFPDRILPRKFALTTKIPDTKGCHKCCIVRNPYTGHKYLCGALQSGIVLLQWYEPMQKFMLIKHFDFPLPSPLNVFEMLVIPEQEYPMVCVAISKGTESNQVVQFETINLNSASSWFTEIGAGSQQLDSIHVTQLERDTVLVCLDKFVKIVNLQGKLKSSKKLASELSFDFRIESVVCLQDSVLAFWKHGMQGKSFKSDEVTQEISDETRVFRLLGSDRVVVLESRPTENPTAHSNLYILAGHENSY
Sequence of Sphingosine 1-phosphate receptor 5 (Q9H228 whole entry): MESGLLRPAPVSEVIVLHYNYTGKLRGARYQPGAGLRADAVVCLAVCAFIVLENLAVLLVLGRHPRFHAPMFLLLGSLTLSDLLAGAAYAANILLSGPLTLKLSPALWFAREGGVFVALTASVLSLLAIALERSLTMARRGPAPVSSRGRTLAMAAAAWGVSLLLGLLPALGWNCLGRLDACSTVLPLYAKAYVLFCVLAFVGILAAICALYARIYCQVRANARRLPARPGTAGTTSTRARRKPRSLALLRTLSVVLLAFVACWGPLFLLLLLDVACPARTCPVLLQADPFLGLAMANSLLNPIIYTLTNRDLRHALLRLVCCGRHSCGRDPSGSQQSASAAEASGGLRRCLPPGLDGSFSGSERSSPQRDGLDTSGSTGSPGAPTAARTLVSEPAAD

As to `CNc1nc(C)c(-c2ccnc(Nc3ccc(N4CCN(C(C)=O)CC4)cc3)n2)s1`, the figures for the Ki (on Wee1-like protein kinase; in experiment [1]) were 0.2 µM (active) and 2.51 µM (active), respectively.
In the case of `c1ccc(-c2ncc3ccccn23)cc1`, the values for the Ki (at LIM domain kinase 1; in experiment [2]; in [3]) were 10 µM (active), 25.1 µM (active) and > 100 µM (inactive), respectively.
With `CCC(Sc1nc(O)c2c(n1)CCC2)C(=O)Nc1cccc(OC)c1` (stereo not drawn), in [4], the CC50 (as a rule, the concentration that lowers cell viability or growth by half) was > 100 µM (active).
For `Oc1ccc(CC2CC3CCN2CC3)cc1O` (stereo not drawn), the AC50 (as a rule, the concentration at which the activity in the assay is half-maximal) in [5] is 3.81 µM (active). In addition, the results for the IC50 in experiment [6] and in experiment [7] were 1.08 µM (active) and 1.15 µM (active), respectively.
Regarding `COc1ccc(C=C2C(=O)ON=C2c2ccc(Br)cc2)cc1`, the Ki (in general, the equilibrium dissociation constant of an inhibitor or competing ligand from its target) in experiment [8] is 2 µM (active); in [9], 3.98 µM (active); on Aurora kinase B it was 1.58 µM (active); in [10], 1.58 µM (active).
`CCc1nnc(NC(=O)Cc2c(F)cccc2Cl)s1`: the IC50 in experiment [11] and in [12] was > 99 µM (inactive) throughout.
As to `CC/N=C1/S/C(=C\c2cc(C)n(-c3ccccc3)c2C)C(=O)N1CC`, the EC50 (in general, the concentration that produces a half-maximal response) in [13] is > 25 µM (inactive); in experiment [14] it was 0.0683 µM (active); in experiment [15] it was > 25 µM (inactive); in experiment [16] it was 0.237 µM (active).
Consider `CCOc1ccc(Sc2c(Cl)cnn(Cc3cccc4ccccc34)c2=O)cc1`, for which the IC50 was > 20 µM (inactive) in experiment [17] and 0.887 µM (active) in experiment [18].
As for `CCc1cc(-c2n[nH]c(C)c2-c2ccc3c(c2)OCCO3)c(O)cc1O`, the Ki in experiment [19] was > 100 µM (inactive); in [20], 2.51 µM (active); in experiment [21], 2.51 µM (active); in experiment [22], > 15.8 µM (inactive); in experiment [10], 1.58 µM (active).
With `COc1cc2ncnc(Nc3ccc(F)c(Cl)c3)c2cc1OCCCN1CCOCC1` [GEFITINIB], the Ki in experiment [23] and in [24] was > 10 µM (inactive) each time.
